Data reported in ChEMBL document CHEMBL4673219, “Novel 5,6-disubstituted pyrrolo[2,3-d]pyrimidine derivatives as broad spectrum antiproliferative agents: Synthesis, cell based assays, kinase profile and molecular docking study” (Bioorg Med Chem, 2018).
Values joined by “and” are separate entries in the source; they are usually repeats but may differ in a detail not shown here. Equal entries are not always repeated.

What was measured:
Assay type in all cases: functional
KM12 = assay: Growth inhibition of human KM12 cells assessed as growth percentage at 0.01 uM incubated for 48 hrs by sulforhodamine B assay relative to control; conditions: read-out: Activity
NCI-H226 [1] = assay: Growth inhibition of human NCI-H226 cells assessed as growth percentage at 100 uM incubated for 48 hrs by sulforhodamine B assay relative to control; conditions: read-out: Activity
UO-31 = assay: Growth inhibition of human UO-31 cells assessed as growth percentage at 0.01 uM incubated for 48 hrs by sulforhodamine B assay relative to control; conditions: read-out: Activity
COLO 205 = assay: Growth inhibition of human COLO 205 cells assessed as growth percentage at 0.01 uM incubated for 48 hrs by sulforhodamine B assay relative to control; conditions: read-out: Activity
RXF 393 = assay: Growth inhibition of human RXF 393 cells assessed as growth percentage at 0.1 uM incubated for 48 hrs by sulforhodamine B assay relative to control; conditions: read-out: Activity
UACC-257 = assay: Growth inhibition of human UACC-257 cells assessed as growth percentage at 0.01 uM incubated for 48 hrs by sulforhodamine B assay relative to control; conditions: read-out: Activity
SK-OV-3 [2] = assay: Growth inhibition of human SK-OV-3 cells assessed as growth percentage at 1 uM incubated for 48 hrs by sulforhodamine B assay relative to control; conditions: read-out: Activity
PC-3 = assay: Growth inhibition of human PC-3 cells assessed as growth percentage at 0.01 uM incubated for 48 hrs by sulforhodamine B assay relative to control; conditions: read-out: Activity
TK-10 = assay: Growth inhibition of human TK-10 cells assessed as growth percentage at 0.01 uM incubated for 48 hrs by sulforhodamine B assay relative to control; conditions: read-out: Activity
MCF7 = assay: Growth inhibition of human MCF7 cells incubated for 48 hrs by sulforhodamine B assay
T47D = assay: Growth inhibition of human T47D cells assessed as growth percentage at 100 uM incubated for 48 hrs by sulforhodamine B assay relative to control; conditions: read-out: Activity
SK-MEL-2 = assay: Growth inhibition of human SK-MEL-2 cells incubated for 48 hrs by sulforhodamine B assay
OVCAR-8 [3] = assay: Growth inhibition of human OVCAR-8 cells assessed as growth percentage at 1 uM incubated for 48 hrs by sulforhodamine B assay relative to control; conditions: read-out: Activity
RPMI-8226 = assay: Growth inhibition of human RPMI-8226 cells incubated for 48 hrs by sulforhodamine B assay
Hs-578T [4] = assay: Growth inhibition of human Hs-578T cells assessed as growth percentage at 100 uM incubated for 48 hrs by sulforhodamine B assay relative to control; conditions: read-out: Activity
NCI-H322M [5] = assay: Growth inhibition of human NCI-H322M cells assessed as growth percentage at 0.1 uM incubated for 48 hrs by sulforhodamine B assay relative to control; conditions: read-out: Activity
SR [6] = assay: Growth inhibition of human SR cells assessed as growth percentage at 0.01 uM incubated for 48 hrs by sulforhodamine B assay relative to control; conditions: read-out: Activity
SNB-75 = assay: Growth inhibition of human SNB-75 cells assessed as growth percentage at 1 uM incubated for 48 hrs by sulforhodamine B assay relative to control; conditions: read-out: Activity
OVCAR-8 [7] = assay: Growth inhibition of human OVCAR-8 cells assessed as growth percentage at 100 uM incubated for 48 hrs by sulforhodamine B assay relative to control; conditions: read-out: Activity
OVCAR-3 = assay: Growth inhibition of human OVCAR-3 cells incubated for 48 hrs by sulforhodamine B assay; conditions: for TGI: OVCAR-3; for CC50: OVCAR-3, read-out: LC50 (the source's name)
NCI-H322M [8] = assay: Growth inhibition of human NCI-H322M cells assessed as growth percentage at 100 uM incubated for 48 hrs by sulforhodamine B assay relative to control; conditions: read-out: Activity
OVCAR-4 = assay: Growth inhibition of human OVCAR-4 cells assessed as growth percentage at 100 uM incubated for 48 hrs by sulforhodamine B assay relative to control; conditions: read-out: Activity
SF-268 = assay: Growth inhibition of human SF-268 cells assessed as growth percentage at 0.1 uM incubated for 48 hrs by sulforhodamine B assay relative to control; conditions: read-out: Activity
NCI/ADR-RES [9] = assay: Growth inhibition of human NCI/ADR-RES cells incubated for 48 hrs by sulforhodamine B assay; conditions: for CC50: read-out: LC50 (the source's name)
HCT-116 [10] = assay: Antiproliferative activity against human HCT-116 cells assessed as cell growth inhibition at 10 uM measured after 72 hrs by MTT assay relative to control; conditions: read-out: GI
HOP-62 = assay: Growth inhibition of human HOP-62 cells assessed as growth percentage at 1 uM incubated for 48 hrs by sulforhodamine B assay relative to control; conditions: read-out: Activity
MDA-MB-468 = assay: Growth inhibition of human MDA-MB-468 cells assessed as growth percentage at 10 uM incubated for 48 hrs by sulforhodamine B assay relative to control; conditions: read-out: Activity
UACC-62 = assay: Growth inhibition of human UACC-62 cells assessed as growth percentage at 10 uM incubated for 48 hrs by sulforhodamine B assay relative to control; conditions: read-out: Activity
NCI-H226 [11] = assay: Growth inhibition of human NCI-H226 cells assessed as growth percentage at 10 uM incubated for 48 hrs by sulforhodamine B assay relative to control; conditions: read-out: Activity
SR [12] = assay: Growth inhibition of human SR cells assessed as growth percentage at 10 uM incubated for 48 hrs by sulforhodamine B assay relative to control; conditions: read-out: Activity
NCI/ADR-RES [13] = assay: Growth inhibition of human NCI/ADR-RES cells assessed as growth percentage at 0.1 uM incubated for 48 hrs by sulforhodamine B assay relative to control; conditions: read-out: Activity
NCI-H522 = assay: Growth inhibition of human NCI-H522 cells assessed as growth percentage at 100 uM incubated for 48 hrs by sulforhodamine B assay relative to control; conditions: read-out: Activity
SK-OV-3 [14] = assay: Growth inhibition of human SK-OV-3 cells assessed as growth percentage at 0.1 uM incubated for 48 hrs by sulforhodamine B assay relative to control; conditions: read-out: Activity
NCI-H460 = assay: Growth inhibition of human NCI-H460 cells incubated for 48 hrs by sulforhodamine B assay
IGROV-1 = assay: Growth inhibition of human IGROV-1 assessed as growth percent at 1 uM incubated for 48 hrs by sulforhodamine B assay relative to control; conditions: read-out: Activity
M14 = assay: Growth inhibition of human M14 cells assessed as growth percentage at 10 uM incubated for 48 hrs by sulforhodamine B assay relative to control; conditions: read-out: Activity
HCT-116 [15] = assay: Growth inhibition of human HCT-116 cells assessed as growth percentage at 100 uM incubated for 48 hrs by sulforhodamine B assay relative to control; conditions: read-out: Activity
Hs-578T [16] = assay: Growth inhibition of human Hs-578T cells assessed as growth percentage at 1 uM incubated for 48 hrs by sulforhodamine B assay relative to control; conditions: read-out: Activity

Nc1nc2[nH]c(CN3CCN(c4cc(Cl)cc(Cl)c4)CC3)c(CN3CCN(c4cc(Cl)cc(Cl)c4)CC3)c2c(=O)[nH]1
growth at 0.01 µM (KM12): 101% | growth at 100 µM (NCI-H226 [1]): -25% | growth at 0.01 µM (UO-31): 96% | growth at 0.01 µM (COLO 205): 95% | growth at 0.1 µM (RXF 393): 89% | growth at 0.01 µM (UACC-257): 96% | growth at 1 µM (SK-OV-3 [2]): 102% | growth at 0.01 µM (PC-3): 97% | growth at 0.01 µM (TK-10): 101% | GI50 (MCF7; Homo sapiens, MCF7, 48 h): 1580 nM | TGI (MCF7; Homo sapiens, MCF7, 48 h): 3430 nM | growth at 100 µM (T47D): -44% | GI50 (SK-MEL-2; Homo sapiens, SK-MEL-2, 48 h): 2210 nM | TGI (SK-MEL-2; Homo sapiens, SK-MEL-2, 48 h): 4.12 µM | growth at 1 µM (OVCAR-8 [3]): 96% | TGI (RPMI-8226; Homo sapiens, RPMI-8226): 6.92 µM | GI50 (RPMI-8226; Homo sapiens, RPMI-8226, 48 h): 2410 nM | growth at 100 µM (Hs-578T [4]): -25% | growth at 0.1 µM (NCI-H322M [5]): 102% | growth at 0.01 µM (SR [6]): 102% | growth at 1 µM (SNB-75): 76% | growth at 100 µM (OVCAR-8 [7]): -44% | TGI (OVCAR-3; Homo sapiens): 3380 nM | GI50 (OVCAR-3; Homo sapiens, OVCAR-3, 48 h): 1810 nM | CC50 (OVCAR-3; Homo sapiens): 6.28 µM | growth at 100 µM (NCI-H322M [8]): -54% | growth at 100 µM (OVCAR-4): -82% | growth at 0.1 µM (SF-268): 102% | TGI (NCI/ADR-RES [9]): 100 µM and > 1 µM | CC50 (NCI/ADR-RES [9]): > 100 µM | inhibition of growth at 10 µM (HCT-116 [10]): 91.7% | growth at 1 µM (HOP-62): 85% | growth at 10 µM (MDA-MB-468): 40.1% | growth at 10 µM (UACC-62): 77.8% | growth at 10 µM (NCI-H226 [11]): 96.5% | growth at 10 µM (SR [12]): 12.1% | growth at 0.1 µM (NCI/ADR-RES [13]): 97% | growth at 100 µM (NCI-H522): -60% | growth at 0.1 µM (SK-OV-3 [14]): 103% | TGI (NCI-H460; Homo sapiens, NCI-H460): 3940 nM | GI50 (NCI-H460; Homo sapiens, NCI-H460, 48 h): 1960 nM | growth at 1 µM (IGROV-1): 96% | growth at 10 µM (M14): 79.7% | growth at 100 µM (HCT-116 [15]): -59% | growth at 1 µM (Hs-578T [16]): 84%

CCCCCCCC(=O)Nc1nc2[nH]c(CN3CCN(Cc4cccc(F)c4)CC3)c(CN3CCN(Cc4cccc(F)c4)CC3)c2c(=O)[nH]1
growth at 0.01 µM (KM12): 96% | growth at 100 µM (NCI-H226 [1]): -94% | growth at 0.01 µM (UO-31): 77% | growth at 0.01 µM (COLO 205): 92% | growth at 0.1 µM (RXF 393): 100% | growth at 0.01 µM (UACC-257): 89% | growth at 1 µM (SK-OV-3 [2]): 107% | growth at 0.01 µM (PC-3): 98% | growth at 0.01 µM (TK-10): 91% | GI50 (MCF7; 48 h): 190 nM | LC50 (MCF7; 48 h): 990 nM | TGI (MCF7; 48 h): 430 nM | GI50 (MCF7; Homo sapiens, MCF7, 48 h): 186 nM | LC50 (MCF7; Homo sapiens, MCF7, 48 h): 985 nM | TGI (MCF7; Homo sapiens, MCF7, 48 h): 428 nM | growth at 100 µM (T47D): -68% | GI50 (SK-MEL-2; 48 h): 1570 nM | TGI (SK-MEL-2; 48 h): 3.03 µM | GI50 (SK-MEL-2; Homo sapiens, SK-MEL-2, 48 h): 2210 nM | TGI (SK-MEL-2; Homo sapiens, SK-MEL-2, 48 h): 4.12 µM | CC50 (SK-MEL-2; Homo sapiens, SK-MEL-2, read-out: LC50 (the source's name)): 5.87 µM | growth at 1 µM (OVCAR-8 [3]): -66% | GI50 (RPMI-8226; 48 h): 360 nM | LC50 (RPMI-8226; 48 h): 100 µM and > 1 µM | GI50 (RPMI-8226; Homo sapiens, RPMI-8226, 48 h): 363 nM | growth at 100 µM (Hs-578T [4]): -40% | growth at 0.1 µM (NCI-H322M [5]): 92% | growth at 0.01 µM (SR [6]): 92% | growth at 1 µM (SNB-75): 71% | growth at 100 µM (OVCAR-8 [7]): -81% | GI50 (OVCAR-3; 48 h): 780 nM | TGI (OVCAR-3; Homo sapiens): 2170 nM | GI50 (OVCAR-3; Homo sapiens, OVCAR-3, 48 h): 781 nM | CC50 (OVCAR-3; Homo sapiens): 5.28 µM | growth at 100 µM (NCI-H322M [8]): -82% | growth at 100 µM (OVCAR-4): -91% | growth at 0.1 µM (SF-268): 95% | GI50 (NCI/ADR-RES [9]; Homo sapiens, NCI/ADR-RES): 1500 nM | TGI (NCI/ADR-RES [9]; Homo sapiens, NCI/ADR-RES): 3.01 µM | CC50 (NCI/ADR-RES [9]; Homo sapiens, NCI/ADR-RES): 6.04 µM | inhibition of growth at 10 µM (HCT-116 [10]): 95.5% | growth at 1 µM (HOP-62): 75% | growth at 10 µM (MDA-MB-468): -68.7% | growth at 10 µM (UACC-62): -93.9% | growth at 10 µM (NCI-H226 [11]): 87.6% | growth at 10 µM (SR [12]): -52.8% | growth at 0.1 µM (NCI/ADR-RES [13]): 95% | growth at 100 µM (NCI-H522): -79% | growth at 0.1 µM (SK-OV-3 [14]): 94% | GI50 (NCI-H460; 48 h): 380 nM | LC50 (NCI-H460; Homo sapiens, NCI-H460): 4.31 µM | TGI (NCI-H460; Homo sapiens, NCI-H460): 1300 nM | GI50 (NCI-H460; Homo sapiens, NCI-H460, 48 h): 383 nM | growth at 1 µM (IGROV-1): 72% | growth at 10 µM (M14): -91.3% | growth at 100 µM (HCT-116 [15]): -69% | growth at 1 µM (Hs-578T [16]): 61%
